Results: patent publication US11306081B2, “Phenylacetamides as inhibitors of rock” (BRISTOL-MYERS SQUIBB COMPANY, priority 2017, dated 2022)

Biological target: ROCK2 (Homo sapiens (Human), UniProt O75116)
Assay: ROCK assay (LABCHIP 3000 peptide phosphorylation assay)
Type: biochemical
Details: 5 μM ATP, 1.5 μM peptide substrate, dose-response
How it was run: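 Rho kinase variants in 20 mM HEPES pH 7.5, 20 mM MgCl2, 0.015% Brij-35, 4 mM DTT, 5 μM ATP, 1.5 μM FITC-AHA-AKRRRLSSLRA-OH peptide; DMSO <2%. EDTA-stopped; phosphorylated/non-phosphorylated peptide separated by microfluidic LabChip readout. Dose-response inhibition curve-fitted to give IC50.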

Sequence of ROCK2 (O75116 whole entry, species assumed): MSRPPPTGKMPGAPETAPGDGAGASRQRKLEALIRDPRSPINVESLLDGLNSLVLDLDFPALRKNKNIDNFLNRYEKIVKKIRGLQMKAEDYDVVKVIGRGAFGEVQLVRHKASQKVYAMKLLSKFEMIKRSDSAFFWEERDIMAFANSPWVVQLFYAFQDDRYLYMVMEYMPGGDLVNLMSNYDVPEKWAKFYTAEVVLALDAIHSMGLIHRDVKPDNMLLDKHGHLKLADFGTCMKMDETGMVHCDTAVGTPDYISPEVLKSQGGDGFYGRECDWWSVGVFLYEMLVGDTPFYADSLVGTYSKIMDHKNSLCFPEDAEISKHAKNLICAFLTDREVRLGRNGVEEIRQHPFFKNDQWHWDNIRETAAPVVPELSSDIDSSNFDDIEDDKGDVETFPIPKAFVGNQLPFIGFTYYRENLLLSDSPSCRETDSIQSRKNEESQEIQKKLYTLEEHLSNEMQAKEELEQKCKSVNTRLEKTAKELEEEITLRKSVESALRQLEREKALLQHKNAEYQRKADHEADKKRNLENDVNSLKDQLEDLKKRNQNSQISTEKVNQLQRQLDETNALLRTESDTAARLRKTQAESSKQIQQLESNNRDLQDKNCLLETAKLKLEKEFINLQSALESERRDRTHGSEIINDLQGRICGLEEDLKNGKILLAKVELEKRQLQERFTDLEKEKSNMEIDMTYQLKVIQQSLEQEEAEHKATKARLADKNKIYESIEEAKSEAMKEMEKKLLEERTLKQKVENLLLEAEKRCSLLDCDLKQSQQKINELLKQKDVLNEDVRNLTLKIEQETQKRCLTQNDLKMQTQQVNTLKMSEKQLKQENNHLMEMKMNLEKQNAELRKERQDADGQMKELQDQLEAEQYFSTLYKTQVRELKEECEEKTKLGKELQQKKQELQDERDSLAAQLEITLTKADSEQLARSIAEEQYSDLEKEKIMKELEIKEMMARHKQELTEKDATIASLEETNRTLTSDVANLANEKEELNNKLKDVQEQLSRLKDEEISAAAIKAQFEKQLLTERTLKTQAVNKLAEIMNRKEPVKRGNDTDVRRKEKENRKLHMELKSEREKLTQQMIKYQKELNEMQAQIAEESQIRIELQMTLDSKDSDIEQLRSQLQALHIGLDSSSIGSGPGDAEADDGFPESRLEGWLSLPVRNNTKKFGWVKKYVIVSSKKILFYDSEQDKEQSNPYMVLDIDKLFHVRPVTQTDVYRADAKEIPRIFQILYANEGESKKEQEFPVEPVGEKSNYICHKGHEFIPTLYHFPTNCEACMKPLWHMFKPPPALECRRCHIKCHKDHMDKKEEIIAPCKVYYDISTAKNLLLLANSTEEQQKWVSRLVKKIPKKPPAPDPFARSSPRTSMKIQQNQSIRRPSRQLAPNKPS

NC(=O)c1cccnc1Oc1ccc(CC(=O)Nc2nc3ccccc3s2)cc1F [Example 015, 2-(4-(2-(benzo[d]thiazol-2-ylamino)-2-oxoethyl)-2-fluorophenoxy)nicotinamide] showed an IC50 of 0.031 µM.

NC(=O)c1cccnc1Oc1ccc(CC(=O)Nc2nc3ccccc3o2)cc1 [Example 054, 2-(4-(2-(benzo[d]oxazol-2-ylamino)-2-oxoethyl)phenoxy) nicotinamide] was tested, and the IC50 was 0.364 µM.

Cc1nccc(-c2nc(NC(=O)Cc3ccc(Oc4ncccc4C(N)=O)c(F)c3)sc2C)n1 [Example 089, 2-(2-fluoro-4-(2-((5-methyl-4-(2-methylpyrimidin-4-yl)thiazol-2-yl)amino)-2-oxoethyl)phenoxy) nicotinamide] gave an IC50 of 0.014 µM.

Molecule COc1ccc2c(c1)nc(NC(=O)Cc1ccc(Oc3ncccc3C(N)=O)c(F)c1)n2CC1CC1 [Example 162, 2-(4-(2-((1-(cyclopropyl-methyl)-5-methoxy-1H-benzo[d]-imidazol-2-yl)-amino)-2-oxoethyl)-2-fluorophenoxy)-nicotinamide] has an IC50 of 0.047 µM.

NC(=O)c1cccnc1Oc1ccc(CC(=O)Nc2nc3cccc(F)c3n2CC2CC2)cc1F [Example 164, 2-(4-(2-((1-(cyclopropyl-methyl)-7-fluoro-1H-benzo[d]-imidazol-2-yl)-amino)-2-oxo-ethyl)-2-fluoro-phenoxy)nicotin-amide] was tested, and the IC50 was 0.012 µM.

CC(C)(O)COc1ccc2sc(NC(=O)Cc3ccc(Oc4ncccc4C(N)=O)c(F)c3)nc2c1 [Example 003, 2-(2-fluoro-4-(2-((5-(2-hydroxy-2-methylpropoxy)benzo[d]thiazol-2-yl)amino)-2-oxoethyl)phenoxy)nicotinamide] showed an IC50 of 0.02 µM.

Cc1sc(NC(=O)Cc2ccc(Oc3ncccc3C(N)=O)cc2)nc1-c1ccc(F)cc1 [Example 078, 2-(4-(2-((4-(4-fluorophenyl)-5-methylthiazol-2-yl)amino)-2-oxoethyl)phenoxy) nicotinamide] gave an IC50 of 0.096 µM.

COc1ccc2nc(NC(=O)Cc3ccc(Oc4ncccc4C(N)=O)c(F)c3)n(CC3CC3)c2c1 [Example 160, 2-(4-(2-((1-(cyclopropyl-methyl)-6-methoxy-1H-benzo[d]-imidazol-2-yl)-amino)-2-oxoethyl)-2-fluorophenoxy)-nicotinamide] was tested, and the IC50 was 0.039 µM.

With COc1cccn2nc(NC(=O)Cc3ccc(Oc4ncccc4C(N)=O)c(F)c3)nc12 [Example 094, 2-(2-fluoro-4-(2-((8-methoxy-[1,2,4]triazolo[1,5-a]pyridin-2-yl)amino)-2-oxoethyl)phenoxy) nicotinamide] the IC50 was 0.015 µM.

Work on NC(=O)c1cccnc1Oc1ccc(CC(=O)Nc2ccn(CC(F)(F)F)n2)cc1F [Example 099, 2-(2-fluoro-4-(2-oxo-2-((1-(2,2,2-trifluoroethyl)-1H-pyrazol-3-yl)amino)ethyl)phe-noxy)nicotinamide] yielded an IC50 of 0.583 µM.

NC(=O)c1cccnc1Oc1ccc(CC(=O)Nc2nc3ccccc3n2CC2CC2)cc1Cl [Example 007, 2-(2-chloro-4-(2-((1-(cyclopropylmethyl)-1H-benzo[d]imidazol-2-yl)amino)-2-oxoethyl)phenoxy)nicotinamide] gave an IC50 of 0.014 µM.

Work on CCCS(=O)(=O)c1ccc2[nH]c(NC(=O)Cc3ccc(Oc4ncccc4C(N)=O)cc3)nc2c1 [Example 069, 2-(4-(2-oxo-2-((5-(propylsulfonyl)-1H-benzo[d]imidazol-2-yl)amino)ethyl)phe-noxy)nicotinamide] yielded an IC50 of 0.558 µM.

Work on COc1ccc2c(c1)CCc1sc(NC(=O)Cc3ccc(Oc4ncccc4C(N)=O)cc3)nc1-2 [Example 053, 2-(4-(2-((7-methoxy-4,5-dihydronaphtho[1,2-d]thiazol-2-yl)amino)-2-oxoethyl)phenoxy) nicotinamide] yielded an IC50 of 0.021 µM.

Cc1sc(NC(=O)Cc2ccc(Oc3ncccc3C(N)=O)c(Cl)c2)nc1-c1ccc(Cl)nc1 [Example 105, 2-(2-chloro-4-(2-((4-(6-chloropyridin-3-yl)-5-methylthiazol-2-yl)amino)-2-oxoethyl)phenoxy) nicotinamide] gave an IC50 of 0.015 µM.
